How the values were obtained:
[1] = system: BMP-specific receptor (BMPR-IA or BMPR-II); assay: BMP specific binding assay (ELISA, absorbance at 595 nm); conditions: PEP7 1 μg/well coated, BMPR-IA or BMPR-II 1 μg/well; relative to PEP111
Procedure: PEP7 (1 μg/well) was added to an ELISA plate and incubated at 4° C. for 12 hours. After PEP7 was coated on the plate, BMPR-IA or BMPR-II (1 μg/well) was added thereto and reacted at room temperature for 2 hours, to obtain a PEP7-BMP receptor complex. A primary antibody specific for a BMP receptor (0.5 μg BMR-IA, BMPR-II) was added to the complex and reacted at room temperature for 1 hour. A secondary antibody (BMPR-IA or BMPR-II-Fc Ab-HRP) was then added to the resulting mixture and reacted at room temperature for 1 hour. After ABTS was added to the resulting mixture and reacted at room temperature for 30 minutes, an absorbance of the resulting mixture was measure at 595 nm (FIG. 1, wherein PEP111(A) means the sequence whose 9th amino acid was alanine, PEP111(P) means the sequence whose alanine was replaced with proline, and PEP111(T) means the sequence whose alanine was replaced with threonine).

[2] = system: MG63 cells; assay: Initial cell differentiation ability assay (ALP activity); format: cell-based; conditions: differentiation culture medium, measured at Day 3 and 8, relative to PEP111
Procedure: (§1) The effect of the oligopeptide disclosed herein on osteoblastic differentiation was examined by comparing ALP (alkaline phosphatase) activity as an initial differentiation marker of osteoblasts. In order to compare the differentiation ability of osteoblasts, MG63 cells were distributed to a 24-well plate at a concentration of 1×10^5 cells and incubated for 1 day. Then, the cell was treated with each of the PEP7 oligopeptide disclosed herein, and positive controls BMP-2 and PEP111 in a differentiation culture medium and incubated in a 37° C. CO2 incubator. The medium was replaced with a fresh one at 2-day intervals, the ALP activity was measured at Day 3 and 8 after the cultivation (FIG. 2).

[3] = system: MG63 cells; assay: Late cell differentiation ability assay (osteopontin production, human ELISA kit); format: cell-based; conditions: culture solution at Day 14, relative to PEP111
Procedure: as §1
(§2) The effect of the PEP7 oligopeptide on osteoblastic differentiation was examined by comparing the production amount of osteocalcin and osteopontin as a late differentiation marker of osteoblasts. The cultivation was carried out according to the same conditions as described above. At Day 14, the culture solution was harvested, and the amount of osteocalcin and osteopontin therein was measured by using a human ELISA kit (FIGS. 3 and 4).

[4] = system: MG63 cells; assay: Calcification ability assay (Alizarin red S staining); format: cell-based; conditions: Day 14, Alizarin red S staining, relative to PEP111
Procedure: as §1
In order to examine whether the oligopeptide disclosed herein can successfully induce osteogenic differentiation, extracellular matrix calcification was observed. The cultivation was carried out according to the same conditions as described above. At Day 14 and 21, the culture solution was harvested and subjected to Alizarin red S staining (FIG. 5).

[5] = system: MG63 cells; assay: Late cell differentiation ability assay (osteocalcin production, human ELISA kit); format: cell-based; conditions: culture solution at Day 14, relative to PEP111
Procedure: as §1, §2

KIPKPSSVPTELSAISMLYL (PEP7)
binding affinity to a BMP-specific receptor, higher than PEP111 [1]: about 23%
ALP (alkaline phosphatase) activity, higher than PEP111 [2]: 20%
osteopontin production, more than PEP111 [3]: ≥ 21%
calcification ability, higher than PEP111 [4]: about 19%
osteocalcin production, more than PEP111 [5]: ≥ 14%
